Measured values reported in US20240300935A1, “Nitrogen Oxide Donors of Beraprost Derivative and the Pharmaceutical Compositions with the Use Thereof” (GUANGZHOU KEMROCMED CO., LTD., priority 2021, published 2024).

What was measured:
[1] = In vitro NO release test (Griess method); settings: 200 μM test compound solution mixed with 200 μM L-cysteine solution, 37° C.
Description: NO was transiently oxidized in aqueous solution using released NO by Griess' method, NO^2− And Griess reagent form a complex, which has strong UV uptake at 540 nm to determine the amount of NO released by the compound. • 1) Preparation of solution: blank solution: 10 mL DMSO and 190 m L PBS mixed; G riess Reagent: sulfonamide (4.0 g), N-(1-naphthalyl) ethylenediamine dihydrochloride (0.2 g) and 10 mL 85% H3PO4 dissolved in 90 mL of distilled water, Blow until clear solution; L-cysteine solution: after accurate weighing of L-cysteine, Add a certain amount of PBS, Prepare a weighed 200 μM solution; Test compound solution: the exact weighing of the test compound, Dissolved in D MSO and diluted to a concentration of 1 mM, Then, when diluted in PBS, To a concentration of 200 μM.
2) Formulation of standard curve equation: prepare sodium nitrite solution concentration: 0 ,0 , 1, 3, 6, 12.5, 25, 50, 100 μmol/L, 150 μL of each concentration, add 50 μL of Griess reagent mix, incubated in 37° C. constant temperature shaker for 30 min, the plate reader measured each tube absorbance at 540 nm, after subtracting the blank solution reading, the standard curve equation . . . 78.56.13.25 • 3) Test compound test: mix 2 mL of the test compound solution and L-cysteine solution, incubate in 37° C. constant temperature shakers for 120 min, take 150 μL of each mixture, add 50 μL of Griess reagent, then incubate in 37° C. constant temperature shaker for 30 min, the microplate measured each tube absorbance at 540 nm, then subtract the blank solution reading and substitute the value into the standard curve equation to obtain NO release.

[2] = test system: platelet aggregation induced by ADP; test: Antiplatelet aggregation effect, ADP-induced, turbidimetry in platelet-rich plasma; type: cell-based; settings: Homo sapiens, 2 min; platelet rich plasma of healthy subjects; 25 μL of 50 nM compound solution in 225 μL plasma, 37° C. 2 min; ADP final 2 μM; read-out: The rate of platelet aggregation inhibition
Description: • 1) Experimental material: ADP, epinephrine, collagen (bilBio) • 2) Experimental method: blood samples provided by healthy subjects were mixed blood with 3.8% citric acid solution and centrifuged at 160 r/min to obtain platelet-rich plasma. To calibrate the data, the obtained platelet-rich plasma was further centrifuged at 2000 r/min to obtain platelet-poor plasma, stored in a −20° C. refrigerator. Testing was performed using Born I's turbiometry. 225 μL of platelet rich plasma was added to the reaction cup, the embodiment compound was configured as 50 nM solution (25 m M Tris-acetate and 120 m M N a Cl), 25 μL of embodiment compound solution was added and after incubation at 37° C. for 2 min, 5 μL of ADP (final concentration 2 μM) was added for platelet aggregation induction. To assess the degree of platelet aggregation, the maximum absorbance value took the data after ADP, thus calculating the inhibition rate of ADP-induced platelet aggregation by each embodiment compound. According to the data in Table 6 below, the compounds of the present application embodiment all have a good effect of inhibiting the platelet aggregation induced by ADP.

CC#CCC(C)[C@@H](O)/C=C/[C@H]1[C@@H]2c3cccc(CCCC(=O)OCCO[N+](=O)[O-])c3O[C@@H]2C[C@@H]1O (stereo partly shown) [Compound 1]
120 min NO^2− [1]: 15.5 µM | inhibition at 0.005 µM [2]: 78%

CC#CCC(C)[C@@H](O)/C=C/[C@H]1[C@@H]2c3cccc(CCCC(=O)OCCCO[N+](=O)[O-])c3O[C@@H]2C[C@@H]1O (stereo partly shown) [Compound 2]
120 min NO^2− [1]: 14.3 µM | inhibition at 0.005 µM [2]: 66%

CC#CCC(C)[C@@H](O)/C=C/[C@H]1[C@@H]2c3cccc(CCCC(=O)OCCCCO[N+](=O)[O-])c3O[C@@H]2C[C@@H]1O (stereo partly shown) [Compound 3]
120 min NO^2− [1]: 16.6 µM | inhibition at 0.005 µM [2]: 57%

CC#CCC(C)[C@@H](O)/C=C/[C@H]1[C@@H]2c3cccc(CCCC(=O)OCCCCCO[N+](=O)[O-])c3O[C@@H]2C[C@@H]1O (stereo partly shown) [Compound 4]
120 min NO^2− [1]: 14.1 µM | inhibition at 0.005 µM [2]: 43%

CC#CCC(C)[C@@H](O)/C=C/[C@H]1[C@@H]2c3cccc(CCCC(=O)OCCCCCCO[N+](=O)[O-])c3O[C@@H]2C[C@@H]1O (stereo partly shown) [Compound 5]
120 min NO^2− [1]: 11.8 µM | inhibition at 0.005 µM [2]: 64%

CC#CCC(C)[C@@H](O)/C=C/[C@H]1[C@@H]2c3cccc(CCCC(=O)OCOCCO[N+](=O)[O-])c3O[C@@H]2C[C@@H]1O (stereo partly shown) [Compound 6]
120 min NO^2− [1]: 17.8 µM | inhibition at 0.005 µM [2]: 39%

CC#CCC(C)[C@@H](O)/C=C/[C@H]1[C@@H]2c3cccc(CCCC(=O)OCOCCCO[N+](=O)[O-])c3O[C@@H]2C[C@@H]1O (stereo partly shown) [Compound 7]
120 min NO^2− [1]: 17.7 µM | inhibition at 0.005 µM [2]: 44%

CC#CCC(C)[C@@H](O)/C=C/[C@H]1[C@@H]2c3cccc(CCCC(=O)OCCOCCO[N+](=O)[O-])c3O[C@@H]2C[C@@H]1O (stereo partly shown) [Compound 8]
120 min NO^2− [1]: 14.8 µM | inhibition at 0.005 µM [2]: 61%

CC#CCC(C)[C@@H](O)/C=C/[C@H]1[C@@H]2c3cccc(CCCC(=O)OCOC(=O)O[N+](=O)[O-])c3O[C@@H]2C[C@@H]1O (stereo partly shown) [Compound 9]
120 min NO^2− [1]: 18.2 µM | inhibition at 0.005 µM [2]: 52%

CC#CCC(C)[C@@H](O)/C=C/[C@H]1[C@@H]2c3cccc(CCCC(=O)OCOC(=O)CCO[N+](=O)[O-])c3O[C@@H]2C[C@@H]1O (stereo partly shown) [Compound 10]
120 min NO^2− [1]: 11.3 µM | inhibition at 0.005 µM [2]: 54%

CC#CCC(C)[C@@H](O)/C=C/[C@H]1[C@@H]2c3cccc(CCCC(=O)OCCCc4ccc(CO[N+](=O)[O-])cc4)c3O[C@@H]2C[C@@H]1O (stereo partly shown) [Compound 11]
120 min NO^2− [1]: 10.1 µM | inhibition at 0.005 µM [2]: 67%

CC#CCC(C)[C@@H](O)/C=C/[C@H]1[C@@H]2c3cccc(CCCC(=O)OCOC(=O)CCCO[N+](=O)[O-])c3O[C@@H]2C[C@@H]1O (stereo partly shown) [Compound 12]
120 min NO^2− [1]: 8.5 µM | inhibition at 0.005 µM [2]: 42%

CC#CCC(C)[C@@H](O)/C=C/[C@H]1[C@@H]2c3cccc(CCCC(=O)OCCCCc4ccc(CO[N+](=O)[O-])cc4)c3O[C@@H]2C[C@@H]1O (stereo partly shown) [Compound 13]
120 min NO^2− [1]: 10.1 µM | inhibition at 0.005 µM [2]: 61%

CC#CCC(C)[C@@H](O)/C=C/[C@H]1[C@@H]2c3cccc(CCCC(=O)OCCC4CCC(CO[N+](=O)[O-])CC4)c3O[C@@H]2C[C@@H]1O (stereo partly shown) [Compound 14]
120 min NO^2− [1]: 9.6 µM | inhibition at 0.005 µM [2]: 48%

CC#CCC(C)[C@@H](O)/C=C/[C@H]1[C@@H]2c3cccc(CCCC(=O)OCOC(=O)CCCCO[N+](=O)[O-])c3O[C@@H]2C[C@@H]1O (stereo partly shown) [Compound 16]
120 min NO^2− [1]: 12.1 µM | inhibition at 0.005 µM [2]: 81%

CC#CCC(C)[C@@H](O)/C=C/[C@H]1[C@@H]2c3cccc(CCCC(=O)OCCOC(=O)CO[N+](=O)[O-])c3O[C@@H]2C[C@@H]1O (stereo partly shown) [Compound 17]
120 min NO^2− [1]: 7.6 µM | inhibition at 0.005 µM [2]: 59%

CC#CCC(C)[C@@H](O)/C=C/[C@H]1[C@@H]2c3cccc(CCCC(=O)OCCCOC(=O)CCO[N+](=O)[O-])c3O[C@@H]2C[C@@H]1O (stereo partly shown) [Compound 18]
120 min NO^2− [1]: 8.0 µM | inhibition at 0.005 µM [2]: 66%

CC#CCC(C)[C@@H](O)/C=C/[C@H]1[C@@H]2c3cccc(CCCC(=O)OCCCCOC(=O)CCO[N+](=O)[O-])c3O[C@@H]2C[C@@H]1O (stereo partly shown) [Compound 19]
120 min NO^2− [1]: 11.3 µM | inhibition at 0.005 µM [2]: 69%

CC#CCC(C)[C@@H](O)/C=C/[C@H]1[C@@H]2c3cccc(CCCC(=O)OCCOC(=O)CCO[N+](=O)[O-])c3O[C@@H]2C[C@@H]1O (stereo partly shown) [Compound 20]
120 min NO^2− [1]: 10.0 µM | inhibition at 0.005 µM [2]: 45%

CC#CCC(C)[C@@H](O)/C=C/[C@H]1[C@@H]2c3cccc(CCCC(=O)OCCOC(=O)C(C)CO[N+](=O)[O-])c3O[C@@H]2C[C@@H]1O (stereo partly shown) [Compound 21]
120 min NO^2− [1]: 11.1 µM | inhibition at 0.005 µM [2]: 81%

CC#CCC(C)[C@@H](O)/C=C/[C@H]1[C@@H]2c3cccc(CCCC(=O)OCCCOC(=O)CCCO[N+](=O)[O-])c3O[C@@H]2C[C@@H]1O (stereo partly shown) [Compound 22]
120 min NO^2− [1]: 13.7 µM | inhibition at 0.005 µM [2]: 52%

CC#CCC(C)[C@@H](O)/C=C/[C@H]1[C@@H]2c3cccc(CCCC(=O)OCCCCOC(=O)CO[N+](=O)[O-])c3O[C@@H]2C[C@@H]1O (stereo partly shown) [Compound 23]
120 min NO^2− [1]: 15.5 µM | inhibition at 0.005 µM [2]: 56%

CC#CCC(C)[C@@H](O)/C=C/[C@H]1[C@@H]2c3cccc(CCCC(=O)OCOC(=O)Cc4ccc(CO[N+](=O)[O-])cc4)c3O[C@@H]2C[C@@H]1O (stereo partly shown) [Compound 24]
120 min NO^2− [1]: 15.8 µM | inhibition at 0.005 µM [2]: 47%

CC#CCC(C)[C@@H](O)/C=C/[C@H]1[C@@H]2c3cccc(CCCC(=O)OCCOC(=O)c4cccc(CO[N+](=O)[O-])c4)c3O[C@@H]2C[C@@H]1O (stereo partly shown) [Compound 25]
120 min NO^2− [1]: 10.7 µM | inhibition at 0.005 µM [2]: 35%

CC#CCC(C)[C@@H](O)/C=C/[C@H]1[C@@H]2c3cccc(CCCC(=O)OCCCOC(=O)c4cccc(CO[N+](=O)[O-])c4)c3O[C@@H]2C[C@@H]1O (stereo partly shown) [Compound 26]
120 min NO^2− [1]: 12.6 µM | inhibition at 0.005 µM [2]: 22%

CC#CCC(C)[C@@H](O)/C=C/[C@H]1[C@@H]2c3cccc(CCCC(=O)OCCCCOC(=O)c4cccc(CO[N+](=O)[O-])c4)c3O[C@@H]2C[C@@H]1O (stereo partly shown) [Compound 27]
120 min NO^2− [1]: 11.9 µM | inhibition at 0.005 µM [2]: 35%

CC#CCC(C)[C@@H](O)/C=C/[C@H]1[C@@H]2c3cccc(CCCC(=O)OCC(CO[N+](=O)[O-])CO[N+](=O)[O-])c3O[C@@H]2C[C@@H]1O (stereo partly shown) [Compound 28]
120 min NO^2− [1]: 14.8 µM | inhibition at 0.005 µM [2]: 47%

CC#CCC(C)[C@@H](O)/C=C/[C@H]1[C@@H]2c3cccc(CCCC(=O)OCCC(CO[N+](=O)[O-])CO[N+](=O)[O-])c3O[C@@H]2C[C@@H]1O (stereo partly shown) [Compound 29]
120 min NO^2− [1]: 16.2 µM | inhibition at 0.005 µM [2]: 56%

CC#CCC(C)[C@@H](O)/C=C/[C@H]1[C@@H]2c3cccc(CCCC(=O)OCOCC(CO[N+](=O)[O-])O[N+](=O)[O-])c3O[C@@H]2C[C@@H]1O (stereo partly shown) [Compound 30]
120 min NO^2− [1]: 17.8 µM | inhibition at 0.005 µM [2]: 52%

CC#CCC(C)[C@@H](O)/C=C/[C@H]1[C@@H]2c3cccc(CCCC(=O)OCCCOCC(CO[N+](=O)[O-])O[N+](=O)[O-])c3O[C@@H]2C[C@@H]1O (stereo partly shown) [Compound 31]
120 min NO^2− [1]: 16.7 µM | inhibition at 0.005 µM [2]: 67%

CC#CCC(C)[C@@H](O)/C=C/[C@H]1[C@@H]2c3cccc(CCCC(=O)OCOc4c(S(=O)(=O)c5ccccc5)no[n+]4[O-])c3O[C@@H]2C[C@@H]1O (stereo partly shown) [Compound 32]
120 min NO^2− [1]: 20.4 µM | inhibition at 0.005 µM [2]: 55%

CC#CCC(C)[C@@H](O)/C=C/[C@H]1[C@@H]2c3cccc(CCCC(=O)OCCOc4no[n+]([O-])c4S(=O)(=O)c4ccccc4)c3O[C@@H]2C[C@@H]1O (stereo partly shown) [Compound 33]
120 min NO^2− [1]: 14.2 µM | inhibition at 0.005 µM [2]: 82%
